Results on 13 compounds are retold here after paper PMC6893898, “Receptor Interaction Profiles of 4-Alkoxy-Substituted 2,5-Dimethoxyphenethylamines and Related Amphetamines” (Frontiers in Pharmacology, 2019).

One experiment addresses T1, rat TAAR1 (Rattus norvegicus, UniProt Q923Y9).
T1 construct: expressed in transfected cells; host or cells: HEK 293 (membrane preparation)
Kind of experiment: Radioligand binding, rat TAAR1 ([3H]RO5166017).

The target in a further experiment is T2, α1A adrenergic receptor (Homo sapiens, UniProt P35348).
T2 construct: expressed in transfected cells; host or cells: Chinese hamster ovary cell line (membrane preparation)
T2 sequence (P35348 1-466): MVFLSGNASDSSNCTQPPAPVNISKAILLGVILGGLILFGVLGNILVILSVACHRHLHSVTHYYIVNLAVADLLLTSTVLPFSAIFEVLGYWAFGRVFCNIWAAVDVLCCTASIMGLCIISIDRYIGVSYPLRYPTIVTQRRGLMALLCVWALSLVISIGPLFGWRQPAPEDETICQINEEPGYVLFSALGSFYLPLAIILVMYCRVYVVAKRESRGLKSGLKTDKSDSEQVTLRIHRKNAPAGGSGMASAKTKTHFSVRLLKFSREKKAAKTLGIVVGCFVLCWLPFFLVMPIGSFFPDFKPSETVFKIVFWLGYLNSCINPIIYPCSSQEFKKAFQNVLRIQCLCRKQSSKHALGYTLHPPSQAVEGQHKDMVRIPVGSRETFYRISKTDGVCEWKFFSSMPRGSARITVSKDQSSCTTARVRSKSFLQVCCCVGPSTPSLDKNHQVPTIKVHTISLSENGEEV
Kind of experiment: Radioligand binding, α1A adrenergic receptor ([3H]prazosin).

A value given as a limit tells only on which side of the number the result lay.

T1 sequence (Q923Y9 whole entry): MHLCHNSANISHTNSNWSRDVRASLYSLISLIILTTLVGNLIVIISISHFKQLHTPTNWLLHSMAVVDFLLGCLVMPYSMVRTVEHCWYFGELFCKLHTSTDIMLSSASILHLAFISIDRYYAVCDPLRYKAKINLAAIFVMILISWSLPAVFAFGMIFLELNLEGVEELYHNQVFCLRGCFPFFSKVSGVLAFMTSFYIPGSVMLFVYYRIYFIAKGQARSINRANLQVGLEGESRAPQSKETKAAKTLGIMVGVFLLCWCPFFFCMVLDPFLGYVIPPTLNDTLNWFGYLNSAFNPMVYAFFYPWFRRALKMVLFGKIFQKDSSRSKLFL

On to `COc1cc(OCCF)c(OC)cc1CC(C)N` (stereo not shown) [MFEM, 2,5-dimethoxy-4-(2-fluoroethoxy)amphetamine], for which the Ki was 1.64 ± 0.3 µM at rat TAAR1 and greater than 6.5 µM on α1A adrenergic receptor.

In the case of `C=CCOc1cc(OC)c(CCN)cc1OC` [2C-O-16, 4-allyloxy-2,5-dimethoxyphenethylamine], the inhibitory constant (Ki) is 0.26 ± 0.07 µM on rat TAAR1 and greater than 6.5 µM at α1A adrenergic receptor.

Regarding `COc1cc(OCC(F)F)c(OC)cc1CCN` [2C-O-21.5, 4-(2,2-difluoroethoxy)-2,5-dimethoxyphenethylamine], the figures for the inhibition constant Ki on rat TAAR1 and at α1A adrenergic receptor were 0.25 ± 0.02 µM and greater than 6.5 µM, respectively.

For `COc1cc(OC(C)C)c(OC)cc1CC(C)N` (stereo not shown) [MIPM, 2,5-dimethoxy-4-isopropoxyamphetamine], the figures for the inhibition constant (Ki) on rat TAAR1 and at α1A adrenergic receptor were 2.9 ± 0.7 µM and greater than 6.5 µM, respectively.

For the compound `C=C(C)COc1cc(OC)c(CC(C)N)cc1OC` (stereo not shown) [MMALM, 2,5-dimethoxy-4-methallyloxyamphetamine], at rat TAAR1, the “Higher rat TAAR1 affinity than TMA-2 (19) and MIPM (18)” value was 5 fold; affinity was put at a Ki of 0.63 ± 0.15 µM. The compound further came in with a Ki on α1A adrenergic receptor greater than 6.5 µM.

For `COc1cc(OCCF)c(OC)cc1CCN` [2C-O-21, 2,5-dimethoxy-4-(2-fluoroethoxy)phenethylamine], the Ki on rat TAAR1 is 0.41 ± 0.04 µM; on α1A adrenergic receptor it was greater than 6.5 µM.

Consider `CCOc1cc(OC)c(CCN)cc1OC` [2C-O-2, 2,5-dimethoxy-4-ethoxyphenethylamine], for which the inhibitory constant (Ki) on rat TAAR1 was 0.34 ± 0.07 µM; on α1A adrenergic receptor it was greater than 6.5 µM.

Turning to `COc1cc(OCc2ccccc2)c(OC)cc1CCN` [2C-O-27, 4-benzyloxy-2,5-dimethoxyphenethylamine], the Ki on rat TAAR1 is 0.021 ± 0.003 µM; on α1A adrenergic receptor, greater than 6.5 µM.

Consider `C=C(C)COc1cc(OC)c(CCN)cc1OC` [2C-O-3, 2,5-dimethoxy-4-methallyloxyphenethylamine], for which the inhibition constant (Ki) is 0.13 µM at rat TAAR1 and greater than 6.5 µM on α1A adrenergic receptor.

In the case of `C=CCOc1cc(OC)c(CC(C)N)cc1OC` (stereo not shown) [MALM, 4-allyloxy-2,5-dimethoxyamphetamine], on rat TAAR1, the “Higher rat TAAR1 affinity than TMA-2 (19) and MIPM (18)” value is given as 3 fold; the affinity corresponds to a Ki of 1.1 ± 0.2 µM. In addition, at α1A adrenergic receptor, the Ki was greater than 6.5 µM.

Regarding `COc1cc(OCC(F)F)c(OC)cc1CC(C)N` (stereo not shown) [MDFEM, 4-(2,2-difluoroethoxy)-2,5-dimethoxyamphetamine], the inhibition constant (Ki) at rat TAAR1 is 1.2 ± 0.2 µM; on α1A adrenergic receptor it was greater than 6.5 µM.

Take `COc1cc(OCC(F)(F)F)c(OC)cc1CC(C)N` (stereo not shown) [MTFEM, 2,5-dimethoxy-4-(2,2,2-trifluoroethoxy)amphetamine]: the Ki at rat TAAR1 was 1.3 ± 0.1 µM; at α1A adrenergic receptor, greater than 6.5 µM.

For the compound `COc1cc(OCC(F)(F)F)c(OC)cc1CCN` [2C-O-22, 2,5-dimethoxy-4-(2,2,2-trifluoroethoxy)phenethylamine], the figures for the Ki at rat TAAR1 and at α1A adrenergic receptor were 0.24 ± 0.06 µM and greater than 6.5 µM, respectively.
